Publication PMC6201879, “N-substituted phenylbenzamides of the niclosamide chemotype attenuate obesity related changes in high fat diet fed mice” (PLoS ONE, 2018)
Read-outs that look alike come from different tables or passages of the source.

Tests used:
[1] = tested on: PH5CH8 liver cells; test: High-throughput hepatic de novo lipogenesis (DNL) assay, high content imaging of steatotic phenotype; assay type: cell-based, human; details: for IC50: Homo sapiens
[2] = tested on: HEK293 cells stably transduced with the human OCT3 transporter; test: Cellular oxygen consumption rate (OCR), MitoXpress Xtra; assay type: cell-based; details: HEK293 cells expressing human OCT3; compared to DMSO control; 2 hours
Protocol: Oxygen consumption rate experiments were performed by ZenBio, Inc (RTP, NC). HEK293 cells stably transduced with the human OCT3 transporter were plated in black-walled microclear plates (Greiner-BioOne) at 60,000 cells per well in growth medium. Cells were incubated overnight to allow attachment before growth medium was removed and replaced with 150μL of assay medium containing compound dilutions. Four concentrations of each compound were prepared and transferred to the empty wells. Control wells contained assay medium only or assay medium containing […] (FCCP) at 1μM. Ten μL of MitoXpress Xtra reagent was added to each test well and 100μL of pre-warmed mineral oil was overlaid in each well to create a seal. The plates were immediately read on a FLUOstar Omega (BMG) using dual read Time Resolved Fluorescence (TR-F) for 2 hours, with measurements taken every 2 minutes using 340nm and 650nm as excitation and emission wavelengths respectively. For lifetime analysis, two measurements per well were taken: 1) delay of 30μs, with a window of 30μs; and 2) delay of 70μs with a window of 30μs. Background TRF values were subtracted from all readings. A ratiometric analysis was performed to determine changes in the Lifetime fluorescence signal: Lifetime (μs)[T] = (D2-D1)/ln(W1/W2), where D is delay; W is fluorescence window value at each time point. Lifetime slopes were calculated using each Lifetime measurement over time. Data are presented as mean ± standard error (SE). The differences between the control (DMSO) and compound treated wells were analyzed using the Student’s t-test. A value of p≤0.05 was considered statistically significant. […]

[3] = tested on: Salmonella typhimurium TA100; details: for Mean Revertant Colony Counts TA-100 SP9+: with S9; for Mean Revertant Colony Counts TA-100 S9-: without S9; for fold increase in the mean number of revertant colonies, TA100: any concentration tested, vs negative control
[4] = Pharmacokinetic profile in Sprague Dawley rats (IV and PO); assay type: in vivo; details: Mean + SD (n = 3); for half-life / Cmax / bioavailability: Sprague Dawley; for half-life / Cmax / bioavailability / C0 / AUC(0-inf) / AUC(0-t) / clearance / MRT inf / Tmax: rat, plasma; for bioavailability: read-out: F (oral bioavailability); for clearance: read-out: Cl_obs
Protocol: To evaluate the pharmacokinetic profile by oral (PO) and intravenous (IV) administration routes we used 6 to 8-week old Sprague Dawley rats weighing approximately 200-330g (n = 3 per study group). Compounds were administered at 1mg/kg in 5% Cremophor EL and 20% PEG400 in water for IV and 5mg/kg in PBS for PO. All dose formulation was performed at room temperature. Animals were fasted overnight prior to dosing and were re-fed approximately 4 hours after dosing. For PO, 0.2ml of blood was collected pre- and 0.5, 1, 2, 4 8 12 and 24-hours after drug delivery and transferred to EDTA-K2 BD Vacutainer plastic blood collection tubes. IV samples were collected pre-injection and 0.08, 0.25, 0.5, 1, 2, 4, 8, 12, 24-hours post injection. Blood samples were centrifuged at 2,000 g for 5 minutes at 4°C to obtain plasma. Plasma samples were stored at -75±15°C prior to analysis and then thawed and analyzed by LC-MS/MS method and pharmacokinetic calculations were performed using WinNolin (Phoenix, version 6.4). For IV administration: T1/2, C0, AUClast, AUCinf, MRT, Cl, Vss, and number of points for regression were determined. For PO administration: T1/2, Cmax, Tmax, AUCinf, AUClast, F(0-∞) %, and number of points for regression were determined. Data are reported as mean and standard deviation.

[5] = Metabolic stability in human liver microsomes; assay type: in vitro ADME; details: for Remaining Percentage of 60 min (%), Human, Tested Sample: 0.5mg/ml microsomes and 1mM NADPH; for Remaining Percentage of 60 min (%), Human, Negative Control: 0.5mg/ml microsomes without NADPH; for Remaining Percentage of 60 min (%), Human, Heat-inactivated Control: heat inactivated microsomes without NADPH
Protocol: Three experiments were performed with 1) 0.5mg/ml microsomes and 1mM NADPH, 2) 0.5mg/ml microsomes without NADPH and 3) 0.5mg/ml heat inactivated microsomes without NADPH in 100mM phosphate buffer, containing 5mM magnesium chloride. […] At the indicated time points, 50μl samples were removed and stopped by addition of 4 volumes of cold acetonitrile with internal standards, 100nM alprazolam, 200nM labetalol and 2μM ketoprofen. The samples were centrifuged at 3,220 g for 40 minutes and aliquots of 100μl were subsequently diluted with 100μl of ultra-pure water and analyzed by LC/MS/MS using a (Shimadzu corporation) LC system coupled to a Shimadzu Triple Quad 5500 mass spectrometer with an ESI interface. The LC system used a Waters XSelect HSS T3 C18, 2.5μm, 2.1 x 50 mm column eluted with one of two methods using mobile phases A (water, 0.1% formic acid) and B (acetonitrile, 0.1% formic acid). […] The Shimadzu Triple Quad 5500 MS was operated with the following parameters: Ion source: Turbo spray; Ionization mode: ESI; Scan type: MRM; Collision gas: 10 L/min; Curtain gas: 30 L/min; Nebulize gas: 50 L/min; Auxiliary gas: 50 L/min; Temperature: 500°C; Ionspray voltage: +5500 V (positive MRM). All experiments were performed in duplicate. Data were analyzed using Microsoft excel, and peak areas were determined from extracted ion chromatograms.

[6] = PH5CH8 liver cells, 10-point dose response between 1μM and 1.9nM, read-out: IC50 (uM), inhibition of steatotic phenotype in DNL assay
[7] = S1 Table, SAR for N-Substituted Phenylbenzamides, read-out: IC50
[8] = S1 Table, SAR for N-Substituted Phenylbenzamides
[9] = iv, 1 mg/kg, IV 1 mg/kg, read-out: T 1/2 (IV) (converted)
[10] = po, 5 mg/kg, PO 5 mg/kg vs IV 1 mg/kg
[11] = IV 1 mg/kg, read-out: AUC Inf (IV)
[12] = IV 1 mg/kg, read-out: AUC last (IV)
[13] = IV 1 mg/kg, read-out: MRT Inf_obs (IV)
[14] = PO 5 mg/kg in PBS, read-out: AUC Inf (PO)
[15] = PO 5 mg/kg in PBS, read-out: AUC last (PO)
[16] = PO 5 mg/kg in PBS, read-out: MRT Inf_obs (PO)

Compound: CC(C)(C)c1ccc(O)c(C(=O)Nc2ccc(C(=O)O)cc2Cl)c1 [Compound 500200, 4-[(5-tert-butyl-2-hydroxybenzene)amido]-3-chlorobenzoic acid]
- IC50 [1, 6]: 0.27 µM
- IC50 [1, 7]: 0.034 µM
- Active/Inactive [1, 8]: Active
- change in respiration / oxygen consumption rate (OCR) [2]: no change in respiration
- Mean Revertant Colony Counts TA-100 SP9+ ([3]; 1.5 ug/Well): 18.7
- Mean Revertant Colony Counts TA-100 S9- ([3]; 1.5 ug/Well): 32.3
- Mean Revertant Colony Counts TA-100 SP9+ ([3]; 4 ug/Well): 19.7
- Mean Revertant Colony Counts TA-100 S9- ([3]; 4 ug/Well): 25.7
- Mean Revertant Colony Counts TA-100 SP9+ ([3]; 10 ug/Well): 22.0
- Mean Revertant Colony Counts TA-100 S9- ([3]; 10 ug/Well): 26.7
- Mean Revertant Colony Counts TA-100 SP9+ ([3]; 25 ug/Well): 22.0
- Mean Revertant Colony Counts TA-100 S9- ([3]; 25 ug/Well): 28.0
- Mean Revertant Colony Counts TA-100 SP9+ ([3]; 64 ug/Well): 20.3
- Mean Revertant Colony Counts TA-100 S9- ([3]; 64 ug/Well): 26.3
- Mean Revertant Colony Counts TA-100 SP9+ ([3]; 160 ug/Well): 27.7
- Mean Revertant Colony Counts TA-100 S9- ([3]; 160 ug/Well): 24.0
- Mean Revertant Colony Counts TA-100 SP9+ ([3]; 400 ug/Well): 18.3
- Mean Revertant Colony Counts TA-100 S9- ([3]; 400 ug/Well): 29.7
- Mean Revertant Colony Counts TA-100 SP9+ ([3]; 1000 ug/Well): 8.0
- Mean Revertant Colony Counts TA-100 S9- ([3]; 1000 ug/Well): 16.3
- fold increase in the mean number of revertant colonies, TA100 [3]: < 2 fold
- AUC _%Extrap_obs (IV) ([4]; IV 1 mg/kg): 0.13 +/- 0.016%
- AUCl ast/D (IV) ([4]; IV 1 mg/kg): 1940 ± 166 ng·kg·h/mL/mg
- V ss_obs ([4]; IV 1 mg/kg): 0.13 ± 0.020 L/kg
- AUC _%Extrap_obs (PO) ([4]; PO 5 mg/kg in PBS): 1.94 +/- 1.27%
- AUC last / D (PO) ([4]; PO 5 mg/kg in PBS): 43.3 ± 25.3 ng·kg·h/mL/mg
- half-life [4, 9]: 1.66 ± 0.48 h
- Cmax ([4]; po, 5 mg/kg, PO 5 mg/kg in PBS): 50.8 ± 35.7 ng/mL
- half-life ([4]; po, 5 mg/kg, PO 5 mg/kg in PBS, read-out: T 1/2 (PO) (converted)): 1.51 ± 0.4 h
- bioavailability [4, 10]: 2.26 ± 1.29%
- C0 ([4]; IV 1 mg/kg): 13800 ± 2610 ng/mL
- AUC(0-inf) [4, 11]: 1940 ± 166 ng·h/mL
- AUC(0-t) [4, 12]: 1940 ± 166 ng·h/mL
- clearance ([4]; IV 1 mg/kg): 8.63 ± 0.78 mL/min/kg
- MRT inf [4, 13]: 0.26 ± 0.048 h
- Tmax ([4]; PO 5 mg/kg in PBS): 3.33 ± 1.15 h
- AUC(0-inf) [4, 14]: 220 ± 1250 ng·h/mL
- AUC(0-t) [4, 15]: 216 ± 127 ng·h/mL
- MRT inf [4, 16]: 4.04 ± 0.68 h
- Remaining Percentage of 60 min (%), Human, Tested Sample [5]: 84.5%
- Remaining Percentage of 60 min (%), Human, Negative Control [5]: 110.2%
- Remaining Percentage of 60 min (%), Human, Heat-inactivated Control [5]: 96.6%

Compound: CC(C)(C)c1ccc(O)c(C(=O)Nc2ccc(C(=O)O)cc2C(F)(F)F)c1 [Compound 500873, 4-[(5-tert-butyl-2-hydroxy)amido]-3-(trifluoromethyl)benzoic acid]
- IC50 [1, 6]: 0.005 µM
- IC50 [1, 7]: 0.0046 µM
- Active/Inactive [1, 8]: Active
- change in respiration / oxygen consumption rate (OCR) [2]: no change in respiration
- Mean Revertant Colony Counts TA-100 SP9+ ([3]; 1.5 ug/Well): 22.3
- Mean Revertant Colony Counts TA-100 S9- ([3]; 1.5 ug/Well): 33.0
- Mean Revertant Colony Counts TA-100 SP9+ ([3]; 4 ug/Well): 18.3
- Mean Revertant Colony Counts TA-100 S9- ([3]; 4 ug/Well): 31.7
- Mean Revertant Colony Counts TA-100 SP9+ ([3]; 10 ug/Well): 20.7
- Mean Revertant Colony Counts TA-100 S9- ([3]; 10 ug/Well): 28.3
- Mean Revertant Colony Counts TA-100 SP9+ ([3]; 25 ug/Well): 16.7
- Mean Revertant Colony Counts TA-100 S9- ([3]; 25 ug/Well): 25.0
- Mean Revertant Colony Counts TA-100 SP9+ ([3]; 64 ug/Well): 18.3
- Mean Revertant Colony Counts TA-100 S9- ([3]; 64 ug/Well): 28.7
- Mean Revertant Colony Counts TA-100 SP9+ ([3]; 160 ug/Well): 22.7
- Mean Revertant Colony Counts TA-100 S9- ([3]; 160 ug/Well): 25.0
- Mean Revertant Colony Counts TA-100 SP9+ ([3]; 400 ug/Well): 17.7
- Mean Revertant Colony Counts TA-100 S9- ([3]; 400 ug/Well): 21.0
- fold increase in the mean number of revertant colonies, TA100 [3]: < 2 fold
- AUC _%Extrap_obs (IV) ([4]; IV 1 mg/kg): 0.249 +/- 0.151%
- AUCl ast/D (IV) ([4]; IV 1 mg/kg): 13000 ± 3070 ng·kg·h/mL/mg
- V ss_obs ([4]; IV 1 mg/kg): 0.11 ± 0.004 L/kg
- AUC _%Extrap_obs (PO) ([4]; PO 5 mg/kg in PBS): 11.14 +/- 11.6%
- AUC last / D (PO) ([4]; PO 5 mg/kg in PBS): 1290 ± 817 ng·kg·h/mL/mg
- C max ([4]; PO 5 mg/kg in PBS, 5 mg/kg): 912.33 ± 856 ng/mL
- F (oral bioavailability) ([4]; PO 5 mg/kg vs IV 1 mg/kg): 10.20 +/-6.3%
- half-life [4, 9]: 2.87 ± 0.86 h
- Cmax ([4]; po, 5 mg/kg, PO 5 mg/kg in PBS): 912 ng/mL
- bioavailability [4, 10]: 10%
- C0 ([4]; IV 1 mg/kg): 24100 ± 4000 ng/mL
- AUC(0-inf) [4, 11]: 13000 ± 3070 ng·h/mL
- AUC(0-t) [4, 12]: 13000 ± 3070 ng·h/mL
- clearance ([4]; IV 1 mg/kg): 1.33 ± 0.31 mL/min/kg
- MRT inf [4, 13]: 1.42 ± 0.29 h
- Tmax ([4]; PO 5 mg/kg in PBS): 3.33 ± 1.15 h
- AUC(0-inf) [4, 14]: 6950 ± 3680 ng·h/mL
- AUC(0-t) [4, 15]: 6430 ± 4080 ng·h/mL
- MRT inf [4, 16]: 10 ± 5.6 h
- Remaining Percentage of 60 min (%), Human, Tested Sample [5]: 64.2%
- Remaining Percentage of 60 min (%), Human, Negative Control [5]: 97.7%
- Remaining Percentage of 60 min (%), Human, Heat-inactivated Control [5]: 91.1%
